Experimental data: PMC5355322, “Enhancement of the bioavailability of a novel anticancer compound (acetyltanshinone IIA) by encapsulation within mPEG-PLGA nanoparticles: a study of formulation optimization, toxicity, and pharmacokinetics” (Oncotarget, 2017)
Where two headings read alike, the source gives them in different places.

Assays:
[1] = system: ER; details: ref [23]; cited from earlier work
[2] = Drug release by dialysis; type: physicochemical; details: after 22 h, water with 1% SDS, 37°C
Procedure: The release of ATA from ATA NPs was investigated using dialysis and compared with the release of free ATA in solution [38–41]. Free ATA, or ATA NPs containing an equal amount of ATA, was mixed with release medium (6 mL ultra-pure water with 1% SDS) and placed in a dialysis sack (MWCO 12,000, Sigma). The pocket was then immersed in release medium (50 mL) with gentle stirring at 37°C. Samples of medium from outside of the pocket (2 mL) were taken at the designated time intervals for analysis, and an equal volume of fresh release medium was replenished. The amount of released drug was determined by the RP-HPLC method described in the section “Pharmacokinetics of ATA NPs in rats” below. The similarity of release profiles between the free ATA and ATA NPs were evaluated by the similarity factor (f2) shown below: f2=50log {[1+1/n∑t=1n(Rt−Tt)^2]^−0.5×100}
where n is the number of the time points, Rt is the release value of ATA NPs at time t, and Tt is the release value of free ATA.

[3] = system: MCF-7 breast cancer cells; test: MTT cell viability assay, MCF-7; type: cell-based; details: for reduction of viability of MCF-7 cells: 10 μM and 20 μM; for IC50: Homo sapiens, MCF7
Procedure: (§1) Meanwhile, human umbilical vein endothelial cells (HUVEC) were used to determine the general toxicity of ATA NPs on non-cancerous cells. Cells were treated with free ATA or ATA NPs at six concentrations: 0.625, 1.25, 2.5, 5, 10, and 20 μM for 24, 48, and 72 h. Cell viability was determined by the MTT assay and the experiment was conducted in triplicate.
(§2) The MTT reduction ability was determined as an index of the metabolic viability, in particular mitochondrial function, of the cells. Briefly, MCF-7 cells or HUVEC were seeded in 96-well plates and allowed to grow overnight. Free ATA (dissolved in DMSO, diluted with DMEM), ATA NPs, or blank NPs were added at different concentrations and the cells were incubated for 24, 48, and 72 h. MTT solution (10 μL; 5 mg/mL) was added into each well for 4 h. One hundred microliters of 1% SDS (containing 0.1% concentrated hydrochloric acid) was then added in each well to dissolve the formazan crystals. After 8 h, the absorbance of solubilized MTT formazan products were measured at 595 nm, and the cell viability was calculated from the OD value of the test sample and the vehicle control (untreated cells) using the following equation: cell viability (%) = ODtest sample /ODvehicle control × 100. The data obtained in triplicate from three independent experiments were presented as the mean ± SD.

[4] = system: human umbilical vein endothelial cells (HUVEC); test: MTT cell viability assay, HUVEC; type: cell-based; details: for IC50: Homo sapiens, HUVEC
Procedure: as §1, §2

[5] = system: zebrafish larvae; test: Heart rate of zebrafish larvae; type: in vivo; details: 5 μM, 96 hpf; normal fish larvae 160 bpm
Procedure: (§3) Various concentrations of the free and nanoparticle forms of ATA were added to zebrafish embryos at four hours post fertilization (hpf).
The temperature of incubator was maintained at 28.5°C to ensure the optimal development of the embryos. Throughout the experiment, incubation solutions with freshly added ATA were replaced daily. Images of the zebrafish were captured in order to document any morphological changes. The heart rate was also recorded as described previously [44–47]. Twenty zebrafish were used in each experimental group and the zebrafish experiments were conducted at least four times.

[6] = Pharmacokinetics in rats after single intravenous administration (RP-HPLC); type: in vivo, rat; details: for half-life: rat, whole blood, 8 mg/kg
Procedure: The pharmacokinetic parameters of ATA were determined using two-chamber model and calculated using Excel PKsolver. According to the requirements for the selection of pharmacokinetic calculation model, the values of Akaike's information criterion and residual sum of squares (Re) were minimized, while the value of the determinate coefficient (r) was maximized. The mean retention time was calculated by statistical moment analysis.
Free ATA was suspended in a solution of PEG300: Ethanol: Tween 80 (60:25:15, v:v:v). […] At different time points (15 min, 30 min, 1, 2, 3, 4, 5, 6, 8, and 24 h), blood samples (0.3 mL) were collected from the suborbital vein and put into heparinized tubes. The blood samples were centrifuged at 3,000 rpm at 4°C for 10 min to obtain plasma. Then, the samples were pretreated and injected into RP-HPLC for detection. Microsoft Excel PKSolver was used to analyze the pharmacokinetic data. All animal studies were done in accordance with the protocol of ARF SBS NIE A-0146 AZ approved by the Institutional Animal Care and Use Committee, Nanyang Technological University, Singapore.
Before the samples were injected into the chromatograph, they were subjected to protein denaturation and precipitation. Briefly, acetonitrile (700 μL) was added to each 300 μL sample to precipitate the proteins and extract ATA. Samples were vortex mixed for 15 min and then centrifuged for 10 min at 14,000 rpm at 4°C. The deproteinized supernatant was recovered and analyzed immediately by RP-HPLC.
The concentration of ATA in plasma or whole blood was measured by RP-HPLC analysis as described above. The standard stock solution of ATA was added into the plasma or blood at different concentrations and subjected to sample pretreatment. The calibration graphs were based on linear regression analysis of the peak-area of ATA versus the concentration of ATA [32–36]. The extraction recoveries of ATA from rat plasma were determined at the concentrations of 0.0005, 0.01, and 50 μg/mL and from rat blood at the concentrations of 0.1, 5, and 100 μg/mL, using five replicates. The precision and accuracy of the method were examined at three concentrations of samples. The intra-day precisions were evaluated by analyzing five replicate samples in one day. The analysis was performed on five consecutive days for the inter-day precision.

[7] = system: zebrafish embryos
Procedure: as §3
Male and female zebrafish were bred in separate tanks. […] After mating, the selected embryos were collected at 4 hpf and placed in 96-well plates. […] In brief, these embryos were placed in glass petri dishes containing of fresh water (25 mL) with pronase (50 μL; 50 mg/mL) for 4-5 min.
Throughout the experiment, incubation solutions with freshly added ATA were replaced daily. Images of the zebrafish were captured in order to document any morphological changes. […] Twenty zebrafish were used in each experimental group and the zebrafish experiments were conducted at least four times.

[8] = system: ER+ breast cancer cells; details: compared with tamoxifen; ref [23]; cited from earlier work
[9] = system: ER; details: ref [23]; cited from earlier work; remark: listed apart in the source
[10] = system: GREB1; details: ref [23]; cited from earlier work
[11] = parameters: method as in our previous study in rats; details: rats; ref our previous study in rats; cited from earlier work
[12] = rat whole blood, single i.v. 8 mg/kg
[13] = rat whole blood, single i.v. 8 mg/kg, two-chamber model

Compound: C[C@]12CC[C@@H]3c4ccc(O)cc4C[C@@H](CCCCCCCCC[S+]([O-])CCCC(F)(F)C(F)(F)F)[C@H]3[C@@H]1CC[C@@H]2O (some centres unmarked) [fulvestrant, reference compound]
- effect on ER protein [1]: only reduced the protein level

Compound: CC(=O)Oc1c(OC(C)=O)c2c(C)coc2c2ccc3c(c12)CCCC3(C)C [Free ATA, acetyltanshinone IIA]
- ATA released [2]: 50%
- reduction of viability of MCF-7 cells ([3]; 48 and 72 h): ~100%
- reduction of viability of MCF-7 cells ([3]; 24 h): approximately 90%
- IC50 ([3]; MCF-7, 24 h): 2620 nM
- IC50 ([3]; MCF-7, 48 h): 1720 nM
- IC50 ([3]; MCF-7, 72 h): 1060 nM
- 24 h-IC50 in HUVEC cells relative to MCF-7 cells ([4]; 24 h, HUVEC vs MCF-7): 7.4 fold
- IC50 ([4]; 24 h): 19300 nM
- IC50 ([4]; 48 h): 6670 nM
- IC50 ([4]; 72 h): 2050 nM
- heartbeats [5]: 120 bpm
- MRT ([6]; female, SD, iv, rat whole blood, single i.v. 8 mg/kg, statistical moment analysis, read-out: MRT (mean retention time) (converted)): 15.9 min
- AUC(0-inf) ([6]; female, SD, iv, rat whole blood, single i.v. 8 mg/kg, two-chamber model): 0.514 µM·h
- AUC(0-t) ([6]; female, SD, iv, rat whole blood, single i.v. 8 mg/kg, two-chamber model, read-out: AUC0-24h (converted)): 0.509 µM·h
- C0 ([6]; female, SD, iv, rat whole blood, single i.v. 8 mg/kg, two-chamber model, read-out: C0 (initial concentration)): 4.06 µM
- half-life ([6]; female, SD, iv, rat whole blood, single i.v. 8 mg/kg, two-chamber model, read-out: t1/2 alpha (distribution half-life)): 3.55 min
- half-life ([6]; female, SD, iv, rat whole blood, single i.v. 8 mg/kg, two-chamber model, read-out: t1/2 beta (elimination half-life)): 22.8 min
- ATA concentration in plasma ([6]; rat plasma, i.v. 8 mg/kg, both forms): too low to be detected after 15 min
- time until the blood concentration of ATA was reduced to 0.5 μM ([6]; rat whole blood, i.v. 8 mg/kg): 12 min
- decline of blood ATA concentration ([6]; rat whole blood, i.v. 8 mg/kg, 240-min test): declined rapidly, and reached a very low level after 30 min
- AUMC (area under the first moment curve) [6, 12]: 490.97 μM·min^2
- Vss (steady state volume of distribution) [6, 12]: 4.12 mg/kg/µM
- CL2 (clearance between central and peripheral compartment) [6, 13]: 0.10 (mg/kg)/μM/min
- CL (clearance) [6, 13]: 0.26 (mg/kg)/μM/min
- V2 (compartment volume of distribution) [6, 13]: 2.15 (mg/kg)/μM
- V (apparent volume of distribution) [6, 13]: 1.97 (mg/kg)/μM
- k10 (elimination rate) [6, 13]: 0.13 min⁻¹
- k12 (inter-compartment rate) [6, 13]: 0.05 min⁻¹
- k21 (intra-compartment rate) [6, 13]: 0.05 min⁻¹
- Deformity and mortality rate (%) (total) ([7]; 2.5 μM, 96 hpf): 40%
- Mortality rate (%) ([7]; 5 μM, 96 hpf): 70%
- Mortality rate (%) ([7]; 10 μM, 96 hpf): 100%
- Mortality rate (%) ([7]; 20 μM, 96 hpf): 100%
- dosages that caused deformity or mortality in zebrafish larvae ([7]; 96 hpf): higher than 1 μM
- Deformity rate (%) ([7]; zebrafish, in vivo): 20%
- growth inhibition of ER+ breast cancer cells [8]: stronger growth inhibition of ER+ breast cancer cells than tamoxifen
- effect on ER protein [1]: completely abolished the presence of ER
- expression of ER at the mRNA level [9]: reduced the expression of ER at the mRNA level
- transcription of ER-responsive gene GREB1 [10]: reduced the transcription
- bioavailability [11]: low bioavailability
